Experimental findings from US20100120789A1, “Compound” (priority 2005, published 2010) are described below.

The structures appear in SMILES notation.

In general, melting point refers to the temperature, or range, at which the solid turns liquid. Compound `O=C(O)Cc1ccc(OCC(=O)C23CC4CC(CC(C4)C2)C3)cc1` [STX2364, [4-(2-Adamantan-1-yl-2-oxo-ethoxy)-phenyl]-acetic acid] had a melting point of 153.4 °C. For `CN(Cc1cccs1)C(=O)CSC12CC3CC(CC(C3)C1)C2`, the melting point was in the range of 51 to 53 °C. For `O=C(NCCc1cccs1)C12CC3CC(CC(C3)C1)C2` [STX1375, Adamantane-1-carboxylic acid (2-thiophen-2-yl-ethyl)-amide], the melting point lay in the range of 123 to 126 °C. In turn, `Cc1cccc(NC(=O)CS(=O)(=O)C23CC4CC(CC(C4)C2)C3)n1` showed a melting point of 126 to 129 °C. The compound `COC(=O)c1ccc(COCC(=O)C23CC4CC(CC(C4)C2)C3)cc1` came in with a melting point of 88.7 °C. For `CCCc1ccc(S(=O)(=O)NCC23CC4CC(CC(C4)C2)C3)cc1` [STX1368, N-Adamantan-1-ylmethyl-4-propyl-benzenesulfonamide], the melting point fell in the range of 148 to 149 °C.

On to `CCN(Cc1cccs1)C(=O)C12CC3CC(CC(C3)C1)C2`, for which the melting point lay within 103 to 105 °C.

The compound `O=C(COCc1cccs1)C12CC3CC(CC(C3)C1)C2` [STX1692, 1-Adamantan-1-yl-2-(thiophen-2-ylmethoxy)-ethanone] displayed a melting point of 57.2 to 58.3 °C. On to `Cc1cccc(CN2CCN(C(=O)C34CC5CC(CC(C5)C3)C4)CC2)c1`, for which the melting point lay in the range of 185 to 187 °C. As to `COc1cc2c(cc1OCc1ccccc1)CCN(C(=O)C13CC4CC(CC(C4)C1)C3)C2`, the melting point is 144 to 145 °C. The compound `O=C(C[S+]([O-])Cc1ccco1)C12CC3CC(CC(C3)C1)C2` (centres unmarked) [STX1908, 1-Adamantan-1-yl-2-(furan-2-ylmethanesulfinyl)-ethanone] came in with a melting point of 75 to 79 °C. Take `CN(C)C(=O)c1ccc(CN(C)C(=O)C23CC4CC(CC(C4)C2)C3)s1`: the melting point lay in the range of 145 to 146 °C. `O=S(=O)(Cc1cn(C23CC4CC(CC(C4)C2)C3)nn1)c1cc(Cl)ccc1Cl`: the melting point is 198 to 199 °C. The same measure for `Cc1c(Cl)cccc1S(=O)(=O)NCC12CC3CC(CC(C3)C1)C2` [STX1370, N-Adamantan-1-ylmethyl-3-chloro-2-methyl-benzenesulfonamide]: 183 to 184 °C.

In turn, `O=C(NCc1ccc(Cl)cc1)C12CC3CC(CC(C3)C1)C2` showed a melting point of 150 to 153 °C. As for `CC(C)N(Cc1cccs1)C(=O)C12CC3CC(CC(C3)C1)C2`, the melting point is 156 to 158 °C. The value for `O=C(NCc1ccc(Cl)cc1)C1CCN(C(=O)C23CC4CC(CC(C4)C2)C3)CC1` [STX2306, 1-(Adamantane-1-carbonyl)-piperidine-4-carboxylic acid 4-chloro-benzylamide] was 150 to 152 °C; that for `CN(Cc1ccsc1)C(=O)CC12CC3CC(CC(C3)C1)C2` [STX2406, 2-Adamantan-1-yl-N-methyl-N-thiophen-3-ylmethyl-acetamide] was 69 to 71 °C; that for `CC(=O)Nc1ccc(S(=O)(=O)CC(=O)C23CC4CC(CC(C4)C2)C3)cc1` [STX2298, N-[4-(2-Adamantan-1-yl-2-oxo-ethanesulfonyl)-phenyl]-acetamide] was 151 to 151.5 °C.

`[O-][S+](Cc1cn(C23CC4CC(CC(C4)C2)C3)nn1)c1cc(Cl)ccc1Cl` (centres unmarked) [STX1892, 1-Adamantan-1-yl-4-(2,5-dichloro-benzenesulfinylmethyl)-1H-[1,2,3]triazole] yielded a melting point of 125 to 128 °C. `O=C(Nc1ccccc1)c1ccc(OCC(=O)C23CC4CC(CC(C4)C2)C3)cc1` yielded a melting point of 184.3 °C. `Cc1c(Cl)cccc1S(=O)(=O)NC12CC3CC(CC(C3)C1)C2` [STX1343, N-Adamantan-1-yl-3-chloro-2-methyl-benzenesulfonamide] yielded a melting point of 197.5 to 198 °C. The compound `O=C(CC12CC3CC(CC(C3)C1)C2)N1CCN(c2ccc(Cl)cc2)CC1` [STX2404, 2-Adamantan-1-yl-1-[4-(4-chloro-phenyl)-piperazin-1-yl]-ethanone] showed a melting point of 112.5 to 115 °C. Compound `CNC(=O)c1ccc(CN(C)C(=O)C23CC4CC(CC(C4)C2)C3)s1` came in with a melting point of 211 to 211.5 °C. `COc1ccc(OCc2cn(C34CC5CC(CC(C5)C3)C4)nn2)cc1OC` [STX1893, 1-Adamantan-1-yl-4-(3,4-dimethoxy-phenoxymethyl)-1H-[1,2,3]triazole]: the melting point fell in the range of 108 to 112 °C. The same measure for `O=C(CS(=O)(=O)Cc1cccs1)C12CC3CC(CC(C3)C1)C2` [STX2299, 1-Adamantan-1-yl-2-(thiophen-2-ylmethanesulfonyl)-ethanone]: 95.5 to 98 °C; for `CN(CCc1ccccn1)C(=O)CC12CC3CC(CC(C3)C1)C2`: 59 to 60 °C; for `CN(Cc1cccn1C)C(=O)CC12CC3CC(CC(C3)C1)C2` [STX2407, 2-Adamantan-1-yl-N-methyl-N-(1-methyl-1H-pyrrol-2-ylmethyl)-acetamide]: 75 to 76.5 °C. `CC1(C(=O)NCc2cccs2)CCCCC1` [STX1642, 1-Methyl-cyclohexanecarboxylic acid(thiophen-2-ylmethyl)-amide] registered a melting point of 72 to 73 °C. `O=C(CC12CC3CC(CC(C3)C1)C2)N1CCN(c2ccccn2)CC1` returned a melting point of 134 to 136 °C.

As to `CCCc1ccc(S(=O)(=O)NC23CC4CC(CC(C4)C2)C3)cc1` [STX1341, N-Adamantan-1-yl-4-propyl-benzenesulfonamide], the melting point is 178 to 178.5 °C. The value for `CC(C)(C)CC(=O)NCc1cccs1` [STX1639, 3,3-Dimethyl-N-thiophen-2-ylmethyl-butyramide] was 83 to 84 °C; that for `Cc1csc(CN(C)C(=O)C23CC4CC(CC(C4)C2)C3)c1` [STX2254, Adamantane-1-carboxylic acid methyl-(4-methyl-thiophen-2-ylmethyl)-amide] was 87 to 88 °C. `CCc1ccc(CN(C)C(=O)CC23CC4CC(CC(C4)C2)C3)s1` [STX2394, 2-Adamantan-1-yl-N-(5-ethyl-thiophen-2-ylmethyl)-N-methyl-acetamide] had a melting point of 54 to 55 °C. `Cc1ccc(CNC(=O)CC23CC4CC(CC(C4)C2)C3)cc1` came in with a melting point of 139 to 142 °C. For the compound `CC(=O)Nc1ccc(OCC(=O)C23CC4CC(CC(C4)C2)C3)cc1Cl`, the melting point was 204 to 206 °C. `CC(=O)Nc1ccc(NCC(=O)C23CC4CC(CC(C4)C2)C3)cc1` [STX2241, N-[4-(2-Adamantan-1-yl-2-oxo-ethylamino)-phenyl]acetamide] had a melting point of 156 to 158 °C. In turn, `Cc1c(C(=O)CSCc2ccc(Cl)cc2)sc2ccc(Cl)cc12` displayed a melting point of 123 to 124 °C. The same measure for `O=C(NC12CC3CC(CC(C3)C1)C2)OCCc1cccs1` [STX1712, Adamantan-1-yl-carbamic acid 2-thiophen-2-yl-ethyl ester]: 67 to 69 °C. The same measure for `Cc1nc2c(Cl)c(NC(=O)C34CC5CC(CC(C5)C3)C4)ccc2s1` [STX1373, Adamantane-1-carboxylic acid (4-chloro-2-methyl-benzothiazol-5-yl)-amide]: 183.5 to 185.5 °C; for `Cc1nc2cc(NCC(=O)C3(C)CC3)ccc2s1`: 116 to 120 °C.

Take `CC(C)(C)C(=O)NCCc1cccs1` [STX1674, 2,2-Dimethyl-N-(2-thiophen-2-yl-ethyl)-propionamide]: the melting point lay in the range of 79 to 80 °C. Take `O=C(N1CCN(c2ccc(Cl)cc2)CC1)C12CC3CC(CC(C3)C1)C2` [STX2120, Adamantan-1-yl-[4-(4-chloro-phenyl)-piperazin-1-yl]methanone]: the melting point was in the range of 183 to 185 °C. On to `O=C(Nc1nccs1)C12CC3CC(CC(C3)C1)C2` [STX2401, Adamantane-1-carboxylic acid thiazol-2-ylamide], for which the melting point is 200 to 201 °C. The same measure for `O=C(NCc1cccc([N+](=O)[O-])c1)C12CC3CC(CC(C3)C1)C2` [STX2411, Adamantane-1-carboxylic acid 3-nitro-benzylamide]: 145.5 to 147 °C; for `O=C(CC12CC3CC(CC(C3)C1)C2)NCc1ccc(-c2ccccn2)s1`: 187 to 188 °C; for `CCN(CC)C(=O)c1ccc(OCC(=O)C23CC4CC(CC(C4)C2)C3)cc1` [STX2375, 4-(2-Adamantan-1-yl-2-oxo-ethoxy)-N,N-diethyl-benzamide]: 103.9 °C. On to `O=C(CC12CC3CC(CC(C3)C1)C2)N1CCN(C(=O)c2ccco2)CC1`, for which the melting point was in the range of 98 to 100 °C. `Cn1ccnc1[S+]([O-])CC(=O)C12CC3CC(CC(C3)C1)C2` (centres unmarked) [STX1924, 1-Adamantan-1-yl-2-(1-methyl-1H-imidazole-2-sulfinyl)-ethanone] showed a melting point of 86 to 89 °C. `CN(Cc1cn(C23CC4CC(CC(C4)C2)C3)nn1)Cc1cccs1`: the melting point lay within 66 to 68 °C. `CN(Cc1cccnc1)C(=O)CC12CC3CC(CC(C3)C1)C2` [STX2409, 2-Adamantan-1-yl-N-methyl-N-pyridin-3-ylmethyl-acetamide] yielded a melting point of 67 to 68.5 °C. The compound `CN(Cc1cccs1)C(=O)[C@H]1CC2C=CC1C2` (stereo partly drawn) [STX1709, Bicyclo[2.2.1]hept-5-ene-2-carboxylic acid methyl-thiophen-2-ylmethyl-amide (exo)] had a melting point of 74 to 75 °C.

Turning to `CN(Cc1cc(Br)cs1)C(=O)CC12CC3CC(CC(C3)C1)C2` [STX2396, 2-Adamantan-1-yl-N-(4-bromo-thiophen-2-ylmethyl)-N-methyl-acetamide], the melting point was 86 to 88.5 °C. `Cc1ccc(CN(C)C(=O)C23CC4CC(CC(C4)C2)C3)s1` [STX2067, Adamantane-1-carboxylic acid methyl-(5-methyl-thiophen-2-ylmethyl)-amide] gave a melting point of 83 to 85.5 °C. Consider `O=C(NCCc1cccs1)[C@H]1CC2C=CC1C2` (stereo partly drawn) [STX1707, Bicyclo[2.2.1]hept-5-ene-2-carboxylic acid(2-thiophen-2-yl-ethyl)-amide (exo)], for which the melting point was in the range of 71 to 72 °C. The same measure for `O=S(=O)(NC12CC3CC(CC(C3)C1)C2)c1ccc(-c2ccccc2)cc1` [STX1344, Biphenyl-4-sulfonic acid adamantan-1-ylamide]: 205 to 205.5 °C.
